Literature values in patent publication US20050009897A1, “Method of treatment” (priority 2001, published 2005).
Like-named read-outs stand apart in the source and are kept apart here.

Tests used:
[1] = 45 hypertensive diabetic patients, cited from earlier work
[2] = nondiabetic hypertensive individuals; cited from earlier work
[3] = compared with other β-blockers, angiotensin converting enzyme inhibitors or calcium channel blockers; cited from earlier work
[4] = hypertensive patients; cited from earlier work

COc1ccccc1OCCNCC(O)COc1cccc2[nH]c3ccccc3c12 (stereo not shown) [carvedilol]
HbA1c [1]: decreased | fasting glucose [1]: decreased | fasting insulin [1]: decreased | glucose disposal [1]: increased | insulin sensitivity [1]: increased | lipid peroxidation [1]: decreased | insulin sensitivity [2]: increases | lowering blood pressure [3]: as effective as other β-blockers, angiotensin converting enzyme inhibitors or calcium channel blockers

CC(C)NCC(O)COc1cccc2ccccc12 (stereo not shown) [propranolol]
glycemic control [4]: significantly reduce

CC(C)NCC(O)COc1ccc(CC(N)=O)cc1 (stereo not shown) [atenolol]
glycemic control [4]: significantly reduce | fasting glucose [1]: increased | fasting insulin [1]: increased | glucose disposal [1]: decreased | insulin sensitivity [1]: decreased | lipid peroxidation [1]: no effect | antihypertensive effect ([1]; relative to carvedilol): equivalent
